Results: US6428654B1, “Fungicidal method” (Hercules Incorporated, priority 2000, dated 2002)
“And” between values parts separate entries of the source, which are not always exact repeats. Equal entries are not always repeated.

Test system: Aspergillus niger (ATCC 6275)
Test: Microtiter XTT growth inhibition assay
Assay type: cell-based
Settings: 37° C. 24 hours, XTT read at 465 nm, duplicate plates (Plate 1, Plate 2)
Description: Preparation of the Spore Inoculum—Two sterile petri dishes containing potato dextrose agar are inoculated with Aspergillus niger (ATCC 6275). The plates are incubated for at least 48 hours at 35+1 ° C. At the end of the incubation period, the plates are checked for mycelia and fruiting bodies of the fungus. To prepare the spore-mycelial suspension, the agar surface is scraped with a sterile cotton tip swab. The spores are suspended from the cotton swab in a sterile test tube containing a solution of 0.85% saline and 0.01% Tween 80 (v/v). The spore-mycelial suspension is shaken or vortexed to break up spore and mycelial clumps. Prior to the addition of the spore-mycelial suspension to the test tube containing saline and Tween, a spectrophotometer is set to 650 nm and the absorbance reading is balanced to zero. The optical density (absorbance) of the spore-mycelial suspension is measured in the spectrophotometer. If necessary, the optical density is adjusted to 0.29 absorbance units by addition of diluent or spores. At an optical density of 0.29 absorbance units (at 650 nm), the concentration of spores is 1×10^9 spores/ml. The spore-mycelial suspension is diluted 1/1000 to yield inoculum used for the microtiter assay, having a concentration of 1×10^6 spores/ml.
Microtiter Assay—Six MULTISCREEN filtration plates (96-well MULTISCREEN-GV, clear plates with 0.22 μm membrane; Millipore Corp., Molsheim, France) are used for a three dose response protocol. This protocol and the six MULTISCREEN plates allows for duplication of the experimental results. The three actives employed are BAS49002F (kresoxim methyl at 50 wt %; BASF Corporation, Ludwigshafen, Germany), AF1912 (diiodomethyl-paratolylsulfone; Angus Chemical Company, Buffalo Grove, Ill.), and MBTC (methylenebisthiocyanate; Aldrich Chemical Company, Milwaukee, Wis.). These actives are individually diluted with water to a concentration of 40 ppm actives. Using separate dilution blocks for each active, the actives are serially diluted to reach experimental dose ranges from 10 to 0.156 ppm. Along with the treatments (actives), Sabouraud Dextrose broth (DIFCO Laboratories, Detroit Mich.) and inoculum are added to each well. The microtiter plates are incubated at 37° C. for 24 hours, and after this period a 0.1% solution of XTT (2,3-bis[2-methoxy-4-nitro-5-sulfophenyl]-2H-tetrazolium-5-carboxanilide; Sigma Chemical, Saint Louis, Mo.) and 0.01% of PMS (phenazine methosulfate; Sigma Chemical, Saint Louis, Mo.) are added to each well. The plates are incubated for approximately 3 more hours. Filtration via the MULTISCREEN plates removes the mycelial growth and nonvegetated spores of Aspergillus niger. Each microtiter well is read at 465 nm for the reduction of XTT by metabolically active cells (i.e., a color change from the untreated controls would indicate respiring fungal cells). Growth inhibition results are presented in Table 2, which represents the processed absorbance data that has been converted as a percent inhibition of fungal growth by the three actives tested (BAS49002F, AF1912, and MBTC). The dashed lines in Table 2 indicate negative inhibition values, which indicate that cells were viable, but in futile cell cycles.

`N#CSCSC#N` [MBTC, methylenebisthiocyanate] was tested, and the “percent inhibition of fungal growth” value (0.156 ppm actives) was “— (The dashed lines in Table 2 indicate negative inhibition values, which indicate that cells were viable, but in futile cell cycles)”, the “percent inhibition of fungal growth” value (0.31 ppm actives) was “— (The dashed lines in Table 2 indicate negative inhibition values, which indicate that cells were viable, but in futile cell cycles)” and the “percent inhibition of fungal growth” value (0.625 ppm actives) was “— (The dashed lines in Table 2 indicate negative inhibition values, which indicate that cells were viable, but in futile cell cycles)”. For the same compound, the “percent inhibition of fungal growth” value (1.25 ppm actives) was “— (The dashed lines in Table 2 indicate negative inhibition values, which indicate that cells were viable, but in futile cell cycles)”, the “percent inhibition of fungal growth” value (2.5 ppm actives) was 86% and 84% and the “percent inhibition of fungal growth” value (5.0 ppm actives) was 88% and 89%. The “percent inhibition of fungal growth” value (10.0 ppm actives) was 88% and 89%.
